Read-outs that look alike come from different tables or passages of the source.

These results are taken from US20080081078A1, “Prevention of Cell Proliferation by Inhibiting Myosin Light Chain Kinase” (The Board of Trustees of the University of Illinois, priority 2006, published 2008).

The test system of test [1] is MLL rat prostate cancer cells. Kind of test: Annexin V / PI flow cytometry apoptosis assay in MLL (MatLyLu) cells. In kind it is cell-based. As for the experimental part: The Mm5MT mouse mammary adenocarcinoma cancer cell line was obtained from American Type Culture Collection (ATCC, Manassas, Va., USA) and was maintained in DMEM medium supplemented with 10% fetal bovine serum (FBS) and 100 U/ml penicillin, 100 μg/ml streptomycin. The MatLy-Lu (MLL) sub-line of the Dunning R-3327 prostate adenocarcinoma (graciously provided by B. Lokeshwar, University of Miami) (Lokeshwar et al., Int. J. Cancer 2002; 98:297-309) was maintained in RPMI1640 medium supplemented with 10% FBS, 250 nM dexamethasone, 100 U/ml penicillin and 100 μg/ml streptomycin.
Mm5MT or MLL cells (200,000 cells per well) were seeded in 6-well dishes one day before drug treatment and cultured as described above. On the day of the experiment, media was changed to DMEM supplemented with 0.5% FBS and the cells were treated with drugs as defined by the specific experimental protocol. ML-7 (Biomol, Plymouth Meeting, Pa.) was incubated with cells for 16 h when used alone. When used in combination with etoposide, ML-7 was added to cells 2 h before adding the indicated concentration of etoposide (Calbiochem, La Jolla, Calif.) and the cells were incubated with ML-7 and etoposide for an additional 16 h. The cells were then treated with trypsin, washed twice with cold PBS and re-suspended in 100 μl of buffer containing 10 mM Hepes, pH 7.4, 140 mM NaCl and 2.5 mM CaCl2 (binding buffer). Then, 5 μl of FITC-conjugated annexin V (Pharmingen, San Diego, Calif.) and 10 μl of propidium iodide (PI) (50 μg/ml) were added and cells were incubated in the dark at room temperature for 15 min. Next, 400 μl of binding buffer was added per sample and the cells were analyzed cytofluorometrically using a Coulter Epics Elite ESP flow cytometer (Ex: 488 nm, Em: 585 nm). At least 10,000 cells were counted per analysis and cells that stained positive for annexin V and PI were judged to be apoptotic.
Cells were grown in culture dishes in Dulbecco's Modified Eagle Medium (Gibco BRL, Gaithersburg, Md.) supplemented with 10% FBS and 1% penicillin and streptomycin. […] The floating and attached cells were combined and analyzed using conventional methods.
To quantify apoptosis, cells were washed twice with cold PBS, resuspended in 100 μl of 10 mM Hepes, pH 7.4, 140 mM NaCl, 2.5 mM CaCl2 (Binding Buffer). […] After incubation, 400 μl of binding buffer was added per sample and cells were analyzed cytofluorimetrically using a Coulter Epics Elite ESP flow cytometer (excitation wavelength: 488 nm, emission wavelength: 585 nm). At least 10,000 cells were counted per analysis and cells that stained positive for Annexin V and PI were considered apoptotic.
Cells were collected 16 h after adding etoposide and apoptosis was quantified by FACS analysis.
A general note: Flow cytometry measures light scatter and fluorescence of single cells or particles in a stream.

For test [2], the system named is MLC-P. Put plainly: MLC-P by urea/glycerol gel immunoblotting in Mm5MT cells. The format is cell-based, mouse. Particulars: 10 μM ML-7, 30 μM etoposide or both, 16 h. A general note: Immunoblotting shows a protein as a band on a membrane.
Method: MLC-P protein was measured by urea/glycerol gel immunoblotting. Mm5MT or MLL cancer cells in 6-well plates were treated with ML-7 (10 or 5 μM, respectively) or etoposide (30 μM) or combination of two at indicated concentrations for 16 h. MLC-P in cancer cells was then quantified by the urea/glycerol gel-immunoblotting method. Briefly, cancer cells were fixed in 10% trichloroacetic acid (TCA) containing 10 mM dithiothreitol (DTT). Cell pellets were washed four times with acetone and protein was extracted by dissolving in buffer containing 9 M urea, 10 mM DTT and 20 mM Tris, pH 8.0. […] This antibody recognizes the unphosphorylated and phosphorylated forms of MLC20. Immunoreactive bands were visualized using enhanced chemiluminescence (ECL) detection reagents (Amersham Pharmacia Biotech, Piscataway, N.J.).
MLC-P was measured by urea/glycerol gel-immunoblotting as described above. Un and P identify unphosphorylated and phosphorylated MLC20, respectively. […] This experiment was repeated four times and the data from a representative experiment is shown.
The subject of test [3] is MLC-P. Put plainly: MLC-P by urea/glycerol gel immunoblotting in MLL cells. The format is cell-based, rat. The conditions noted are these: 5 μM ML-7, 30 μM etoposide or both.
A further test has as its system MLL cells. Put plainly: MLL prostate tumor in Copenhagen rats, ML-7 and/or etoposide. The format is in vivo. As for the experimental part:
To determine whether ML-7 stimulated the ability of etoposide to induce apoptosis and retard tumor growth more generally in tumor cells, the effects of ML-7 and etoposide on MLL prostate cancer cells were examined. MLL cells grown in culture were harvested and washed in serum-free Hank's buffer. The cells were suspended in 500 μl serum-free Hank's media and 10^6 cells were injected subcutaneously into the right flank of 12-week old male Copenhagen rats anesthetized with ether. […] Rats were randomly divided into four groups, five in each group, and received injections of ML-7 or vehicle via the jugular vein every 4 days for 2 weeks. ML-7 was used at the dose of 35 mg/kg. In mice receiving etoposide the drug was injected IP at the maximum tolerant dose of 50 mg/m^2 daily. Rats were sacrificed with ether 14 days after the start of drug treatment, and tumors removed, weighed and processed as described below.
To test the anticancer effect of ML-7 in a rat prostate cancer model, ML-7 or vehicle was administered by intrajugular injection, and etoposide administered by intraperitoneal injection. Male Copenhagen rats were inoculated with MLL cells as described above. […] The rats were sacrificed after 14 days of drug treatment and tumor weight and body weight were recorded.
Tumor sections were deparaffinized and rehydrated according to standard procedures. […]

Regarding `COc1cc([C@@H]2c3cc4c(cc3[C@@H](O[C@@H]3O[C@@H]5CO[C@@H](C)O[C@H]5[C@H](O)[C@H]3O)[C@H]3COC(=O)[C@H]23)OCO4)cc(OC)c1O` [etoposide], the EC50 was 376 µM in test [1] (MLL cells, no ML-7 (FIG. 15), read-out: concentration of etoposide required for inducing apoptosis in 50% of the cells); 68 µM in test [1] (MLL cells, with 5 μM ML-7 pre-treatment (FIG. 15), read-out: concentration of etoposide required for inducing apoptosis in 50% of the cells); about 410 µM in test [1] (MatLyLu cells, etoposide alone (FIG. 7), read-out: half-maximal concentration for producing apoptosis); about 40 µM in test [1] (MatLyLu cells, etoposide plus 5 μM ML-7 (FIG. 7), read-out: half-maximal concentration for producing apoptosis). In addition, the MLC-P entry is given as “decreased MLC-P” with MLC-P [2] and “smaller decrease in MLC-P” in the test with MLC-P [3]. In addition, the “TUNEL positive nuclei in tumors” value in the test on MLL cells (300 cells, MLL tumors in rats (FIG. 17)) is reported as 35.8%. In the test on MLL cells (rats, ML-7 35 mg/kg jugular vein every 4 days, etoposide 50 mg/m^2 IP daily, 14 days), the “decrease in tumor weight vs vehicle control” value worked out at 43.3%.
